Reference: article PMC5866846 (Archives of Toxicology, 2017)

Key:
[1] = system: upcyte hepatocytes 653-03; experiment: Tam metabolism in upcyte hepatocytes 653-03 (parental), metabolites in culture medium; format: in vitro ADME, human; details: 1 µM Tam, 653-03 cells
Procedure: (§1) The medium was replaced every 2–3 days. […].
(§2) The culture medium was collected after 24, 48, 72, 96 and 144 h followed by metabolite measurements using HPLC-ESI-MS/MS.
(§3) Protein was precipitated by the addition of ACN containing 1% of acetic acid and the corresponding deuterated internal standards to the same volume of the sample followed by centrifugation at 20.000 g for 15 min at RT. […] Analytes were separated on a Zorbax Eclipse Plus C18 column (1.8 µm, 100 × 2.1 mm, Agilent technologies) and detected on a 6460 triple quadrupole mass spectrometer (Agilent technologies) in positive ESI MRM mode. Glucuronides of estrogen-like metabolites were detected separately via MS/MS-measurements in negative ESI MRM mode.
(§4) […]. […] […].

[2] = system: upcyte hepatocytes 653-03 2D6; experiment: Tam metabolism in upcyte hepatocytes 653-03 2D6, metabolites in culture medium; format: in vitro ADME, human
Procedure: as §1, §2, §3, §4

CYP1A2 = CYP1A2 activity in upcyte hepatocytes after treatment (probe substrate cocktail)
Procedure: (§5) Cells were cultivated in hepatocyte culture medium at 37 °C and 5 °% CO2 in a humidified incubator. Before starting experiments, cells were cultivated in hepatocyte culture medium containing 0.5% (v/v) DMSO (Preculture medium) for 5 days (density of 0.8 × 10^4 cells/cm^2) and were subcultivated in high-performance medium containing 0.1% (v/v) DMSO (Metabolism conditioning medium) for 3–5 days (density of 1.6 × 10^5 cells/cm^2, confluence). The medium was replaced every 2–3 days.
(§6) In HLM and supersome™ incubations the formation rate is given as nmol µg^−1 min^−1 and fmol pmol^−1 min^−1, respectively, and was calculated as the mean ± SD. […] The intrinsic Clearance (Clint) was given as Vmax/Km ratio. […] Activity of CYP enzymes in induction assays is given as the fold-change (mean ± SD) compared to the corresponding DMSO-treated control. […] Gene expression patterns of treated cells are given as fold-change compared to the corresponding DMSO-treated control samples, as described above. […] In induction and inhibition experiments corresponding EC50 and IC50 values were calculated by nonlinear regression. In all experiments a level of probability (p) ≤ 0.05 for statistical testing was considered significant.
(§7) As control 0.05 % DMSO was used. The basal CYP activity and induction of CYP activity compared to the DMSO control were measured via HPLC-ESI-MS/MS.

CYP2B6 = CYP2B6 activity in upcyte hepatocytes after treatment (probe substrate cocktail); details: human, probe bupropion (25 µM)
Procedure: as §5, §6, §7

CYP3A4 = CYP3A4 activity in upcyte hepatocytes after treatment (probe substrate cocktail); details: human, probe atorvastatin (35 µM), EC50 of induction of CYP3A4 activity, upcyte hepatocytes, 72 h, 50 pM to 5 µM
Procedure: as §5, §6, §7

[3] = system: CYP1A2, 2C19, 2C9, 2B6, 3A4 and 2C8; experiment: CYP activity in upcyte hepatocytes after treatment, all tested CYP isoenzymes together; format: cell-based, human; details: 5 µM, 72 h
Procedure: as §5, §6

CYP3A4 gene expression = CYP3A4 gene expression in upcyte hepatocytes (Fluidigm RT-PCR); details: 5 µM, 72 h, both cell strains
Description: (§8) Total RNA was isolated from cells using the Direct-zol™ RNA MiniPrep kit (Zymo Research Corp., Irvine, California). cDNA was synthesized using TaqMan Reverse Transcription Reagents (Life technologies, Applera GmbH, Darmstadt, Germany) and the expression of 25 genes representative of phase I and phase II drug metabolism and transport was quantified by Fluidigm’s BioMark HD high-throughput quantitative chip platform (Fluidigm Corporation, San Francisco, USA). For relative gene expression analysis, the delta-delta-Ct (ΔΔCt) method was used: the Ct values of the target mRNA were first normalized to those of the endogenous control glyceraldehyde-3-phosphate dehydrogenase (GAPDH) followed by dividing values of experimental samples by their corresponding DMSO-treated controls to calculate the x-fold changes of mRNA expression.
as §6, §7

CYP1A1 gene expression = CYP1A1 gene expression in upcyte hepatocytes (Fluidigm RT-PCR); format: cell-based, human; details: 5 µM, 72 h, both cell strains
Description: (§9) Differences between induced and control samples were compared using Welch’s t-test (GraphPad Prism, version 5.04), when the fold-change was considered biologically relevant (1.5-fold increase or decrease in fold-changes) and corrected for multiple testing according to Bonferroni. […] An unpaired t-test assuming unequal variances was used for testing of differences in the expression patterns, when the fold-change was considered biologically relevant (1.5-fold increase or decrease in fold-changes) and corrected using Bonferroni adjustments.

SLC10A1 gene expression = SLC10A1 gene expression in upcyte hepatocytes (Fluidigm RT-PCR); format: cell-based, human; details: 5 µM, 72 h, both cell strains
Description: as §9

ABCG2 gene expression = ABCG2 gene expression in upcyte hepatocytes (Fluidigm RT-PCR); format: cell-based, human; details: 5 µM, 72 h, both cell strains
Description: as §9

SLC22A7 gene expression = SLC22A7 gene expression in upcyte hepatocytes (Fluidigm RT-PCR); format: cell-based, human; details: 5 µM, 72 h, both cell strains
Description: as §8
In HLM and supersome™ incubations the formation rate is given as nmol µg^−1 min^−1 and fmol pmol^−1 min^−1, respectively, and was calculated as the mean ± SD. […] The intrinsic Clearance (Clint) was given as Vmax/Km ratio. […] In induction and inhibition experiments corresponding EC50 and IC50 values were calculated by nonlinear regression. […]
as §7

estrogen receptor = system: estrogen receptor; set-up: method as in Johnson et al. [1989]; Murphy et al. [1990]; details: in vitro, estrogen-dependent breast cancer cell lines; ref Johnson et al. [1989]; Murphy et al. [1990]; cited from earlier work
CYP2C8 = target: T1, CYP2C8 (Homo sapiens, UniProt P10632); experiment: CYP2C8 activity in upcyte hepatocytes after treatment (probe substrate cocktail); format: cell-based; set-up: host or cells: upcyte hepatocytes 653-03 and 653-03 #138 (653-03 2D6); details: upcyte hepatocytes, 72 h, 50 pM to 5 µM; read-out: EC50 of induction of CYP2C8 activity
T1 sequence (P10632 1-490): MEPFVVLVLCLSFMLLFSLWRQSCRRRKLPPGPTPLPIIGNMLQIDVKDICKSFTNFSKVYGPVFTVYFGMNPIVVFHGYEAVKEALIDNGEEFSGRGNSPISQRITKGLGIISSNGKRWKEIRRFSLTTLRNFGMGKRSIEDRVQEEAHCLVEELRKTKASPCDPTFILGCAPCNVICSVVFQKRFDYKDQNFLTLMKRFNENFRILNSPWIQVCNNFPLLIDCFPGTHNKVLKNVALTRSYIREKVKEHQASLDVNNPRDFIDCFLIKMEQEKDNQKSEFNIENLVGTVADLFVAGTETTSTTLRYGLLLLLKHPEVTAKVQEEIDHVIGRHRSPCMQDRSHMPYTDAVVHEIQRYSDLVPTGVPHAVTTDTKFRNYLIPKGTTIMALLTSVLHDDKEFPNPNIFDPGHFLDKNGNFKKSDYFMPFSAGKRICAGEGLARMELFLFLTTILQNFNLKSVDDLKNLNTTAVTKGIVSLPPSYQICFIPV
Procedure: as §5, §6, §7

CYP2C9 = CYP2C9 (Homo sapiens, UniProt P11712); experiment: CYP2C9 activity in upcyte hepatocytes after treatment (probe substrate cocktail); format: cell-based; set-up: host or cells: upcyte hepatocytes 653-03 and 653-03 #138 (653-03 2D6); details: upcyte hepatocytes, 72 h, 50 pM to 5 µM; read-out: EC50 of induction of CYP2C9 activity
Procedure: as §5, §6, §7

CYP2C19 = CYP2C19 (Homo sapiens, UniProt P33261); experiment: CYP2C19 activity in upcyte hepatocytes after treatment (probe substrate cocktail); format: cell-based; set-up: host or cells: upcyte hepatocytes 653-03 and 653-03 #138 (653-03 2D6); details: upcyte hepatocytes, 72 h, 50 pM to 5 µM; read-out: EC50 of induction of CYP2C19 activity
Procedure: as §5, §6, §7

CYP2C9, sequence (P11712 whole entry): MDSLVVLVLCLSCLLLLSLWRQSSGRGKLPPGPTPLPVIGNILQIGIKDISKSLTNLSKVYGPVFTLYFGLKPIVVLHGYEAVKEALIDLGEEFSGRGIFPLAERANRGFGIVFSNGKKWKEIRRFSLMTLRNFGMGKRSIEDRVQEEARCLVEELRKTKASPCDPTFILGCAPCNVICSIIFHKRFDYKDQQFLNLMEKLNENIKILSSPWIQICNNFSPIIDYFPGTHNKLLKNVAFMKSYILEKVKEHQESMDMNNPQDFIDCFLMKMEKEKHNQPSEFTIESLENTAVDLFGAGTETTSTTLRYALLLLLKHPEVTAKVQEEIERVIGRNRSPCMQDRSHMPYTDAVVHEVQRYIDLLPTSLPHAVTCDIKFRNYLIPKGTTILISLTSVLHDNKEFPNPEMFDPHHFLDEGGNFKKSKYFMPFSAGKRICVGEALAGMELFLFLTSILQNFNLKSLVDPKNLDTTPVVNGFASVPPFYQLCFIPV
CYP2C19, sequence (P33261 whole entry): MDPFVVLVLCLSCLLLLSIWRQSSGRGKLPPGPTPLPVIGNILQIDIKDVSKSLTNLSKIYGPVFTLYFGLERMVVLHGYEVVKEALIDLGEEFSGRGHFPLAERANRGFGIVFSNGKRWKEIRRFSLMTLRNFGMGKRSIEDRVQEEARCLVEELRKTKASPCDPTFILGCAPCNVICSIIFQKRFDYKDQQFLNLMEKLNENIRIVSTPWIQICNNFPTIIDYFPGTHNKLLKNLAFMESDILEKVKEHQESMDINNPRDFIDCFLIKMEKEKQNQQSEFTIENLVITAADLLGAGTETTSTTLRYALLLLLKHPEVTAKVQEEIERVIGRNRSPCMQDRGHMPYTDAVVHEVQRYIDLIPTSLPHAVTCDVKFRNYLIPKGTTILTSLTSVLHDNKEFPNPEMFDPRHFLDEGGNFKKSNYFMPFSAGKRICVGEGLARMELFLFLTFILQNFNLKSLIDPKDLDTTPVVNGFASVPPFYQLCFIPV

CCC(=C(c1ccc(O)cc1)c1ccc(O)cc1)c1ccccc1 [Tam-Bis, 4-[1-(4-hydroxyphenyl)-2-phenylbut-1-en-1-yl]phenol]
concentration in the supernatant [1]: 0.0306 nM | concentration in the supernatant ([2]; 1 µM Tam, 653-03 2D6 cells): up to 87.5 pM | concentration in the supernatant of 653-03 2D6 cells relative to parental cells ([2]; cells incubated with 1 µM Tam up to 144 h): up to 4 times | EC50 at 72 h (CYP1A2; human, EC50 of induction of CYP1A2 activity, 50 pM to 5 µM): > 400 nM | EC50 (CYP1A2; read-out: EC50 of induction of CYP1A2 activity, 72 h, 50 pM to 5 µM): 518 nM | EC50 at 72 h (CYP2B6): 187 nM | EC50 at 72 h (CYP3A4): 178 nM | inhibitory effect on the tested CYP enzymes [3]: no inhibitory effect | CYP3A4 gene expression, induction vs DMSO control (CYP3A4 gene expression): up to 4.5 fold | CYP3A4 gene expression, induction vs DMSO control (CYP3A4 gene expression; listed as tamoxifen bisphenol): up to 5.6 fold | CYP1A1 gene expression, induction vs DMSO control (CYP1A1 gene expression): up to 4.5 fold | SLC10A1 gene expression, downregulation (fold lower) (SLC10A1 gene expression): up to 2.5 fold | ABCG2 gene expression, induction vs DMSO control (ABCG2 gene expression): up to 4.5 fold | SLC22A7 gene expression, fold lower than DMSO control (SLC22A7 gene expression): up to 2.5 fold | agonism regarding estrogen-regulated mRNA expression (estrogen receptor): full agonists | EC50 (CYP2C8): 400 nM | EC50 (CYP2C9): 488 nM | EC50 (CYP2C19): 30.5 nM
